Assay results reported in the NIST ThermoML archive (doi:10.1016/j.fluid.2010.08.022).

Conditions: 101.33 kPa; for mass density: Vibrating tube method; for speed of sound: Sing-around technique in a fixed-path interferometer; for viscosity: Visco Elite L rheometer

CCCCCCCC/C=C\CCCCCCCC(=O)O.NCCO [2-hydroxyethylammonium oleate]
Conditions	mass density [kg/m3]	speed of sound [m/s]	viscosity [mPa·s]
310.91 K, Liquid crystal of unknown type	928.395	–	–
311.16 K, Liquid crystal of unknown type	928.237	1466.6	–
311.41 K, Liquid crystal of unknown type	928.077	1465.8	–
311.66 K, Liquid crystal of unknown type	927.918	1465	–
311.91 K, Liquid crystal of unknown type	927.76	1464.2	–
312.16 K, Liquid crystal of unknown type	927.599	1463.4	–
312.41 K, Liquid crystal of unknown type	927.441	1462.6	–
312.66 K, Liquid crystal of unknown type	927.283	1461.8	–
312.91 K, Liquid crystal of unknown type	927.122	1461	–
313.16 K, Liquid crystal of unknown type	926.962	1460.2	–
313.41 K, Liquid crystal of unknown type	926.805	1459.4	–
313.66 K, Liquid crystal of unknown type	926.647	1458.6	–
313.91 K, Liquid crystal of unknown type	926.486	1457.8	–
314.16 K, Liquid crystal of unknown type	926.328	1457	–
314.41 K, Liquid crystal of unknown type	926.167	1456.2	–
314.66 K, Liquid crystal of unknown type	926.009	1455.4	–
314.91 K, Liquid crystal of unknown type	925.851	1454.6	–
315.16 K, Liquid crystal of unknown type	925.69	1453.8	–
315.41 K, Liquid crystal of unknown type	925.531	1453	–
315.66 K, Liquid crystal of unknown type	925.372	1452.2	–
315.91 K, Liquid crystal of unknown type	925.214	1451.4	–
316.16 K, Liquid crystal of unknown type	925.054	1450.6	–
316.41 K, Liquid crystal of unknown type	924.895	1449.8	–
316.66 K, Liquid crystal of unknown type	924.735	1449	–
316.91 K, Liquid crystal of unknown type	924.575	1448.2	–
317.16 K, Liquid crystal of unknown type	924.416	1447.4	–
317.41 K, Liquid crystal of unknown type	924.257	1446.6	–
317.66 K, Liquid crystal of unknown type	924.098	1445.8	–
317.91 K, Liquid crystal of unknown type	923.938	1445	–
318.16 K, Liquid crystal of unknown type	923.779	1444.2	–
318.4 K, Liquid crystal of unknown type	923.621	1443.4	–
318.66 K, Liquid crystal of unknown type	923.461	1442.6	–
318.91 K, Liquid crystal of unknown type	923.302	1441.8	–
319.16 K, Liquid crystal of unknown type	923.142	1441	–
319.41 K, Liquid crystal of unknown type	922.982	1440.2	–
319.65 K, Liquid crystal of unknown type	922.821	1439.4	–
319.91 K, Liquid crystal of unknown type	922.663	1438.6	–
320.16 K, Liquid crystal of unknown type	922.502	1437.8	–
320.41 K, Liquid crystal of unknown type	922.343	1437	–
320.66 K, Liquid crystal of unknown type	922.184	1436.2	–
320.91 K, Liquid crystal of unknown type	922.026	1435.5	–
321.16 K, Liquid crystal of unknown type	921.864	1434.7	–
321.41 K, Liquid crystal of unknown type	921.705	1433.9	–
321.66 K, Liquid crystal of unknown type	921.546	1433.1	–
321.91 K, Liquid crystal of unknown type	921.386	1432.3	–
322.15 K, Liquid crystal of unknown type	921.225	1431.5	–
322.41 K, Liquid crystal of unknown type	921.066	1430.8	–
322.66 K, Liquid crystal of unknown type	920.906	1430	–
322.91 K, Liquid crystal of unknown type	920.746	1429.2	–
323.16 K, Liquid crystal of unknown type	920.588	1428.4	–
323.41 K, Liquid crystal of unknown type	920.427	1427.6	–
323.66 K, Liquid crystal of unknown type	920.268	1426.8	–
323.91 K, Liquid crystal of unknown type	920.108	1426	–
324.16 K, Liquid crystal of unknown type	919.948	1425.3	–
324.41 K, Liquid crystal of unknown type	919.788	1424.5	–
324.66 K, Liquid crystal of unknown type	919.629	1423.7	–
324.91 K, Liquid crystal of unknown type	919.469	1422.9	–
325.16 K, Liquid crystal of unknown type	919.309	1422.1	–
325.41 K, Liquid crystal of unknown type	919.149	1421.3	–
325.66 K, Liquid crystal of unknown type	918.989	1420.5	–
325.91 K, Liquid crystal of unknown type	918.828	1419.7	–
326.16 K, Liquid crystal of unknown type	918.669	1419	–
326.41 K, Liquid crystal of unknown type	918.508	1418.2	–
326.66 K, Liquid crystal of unknown type	918.347	1417.4	–
326.91 K, Liquid crystal of unknown type	918.187	1416.6	–
327.16 K, Liquid crystal of unknown type	918.029	1415.8	–
327.41 K, Liquid crystal of unknown type	917.867	1415.1	–
327.66 K, Liquid crystal of unknown type	917.707	1414.3	–
327.91 K, Liquid crystal of unknown type	917.547	1413.5	–
328.16 K, Liquid crystal of unknown type	917.387	1412.7	–
328.41 K, Liquid crystal of unknown type	917.226	1412	–
328.66 K, Liquid crystal of unknown type	917.066	1411.2	–
328.9 K, Liquid crystal of unknown type	916.907	1410.4	–
329.16 K, Liquid crystal of unknown type	916.746	1409.6	–
329.41 K, Liquid crystal of unknown type	916.585	1408.9	–
329.66 K, Liquid crystal of unknown type	916.424	1408.1	–
329.91 K, Liquid crystal of unknown type	916.265	1407.3	–
330.16 K, Liquid crystal of unknown type	916.103	1406.5	–
330.41 K, Liquid crystal of unknown type	915.943	1405.8	–
330.66 K, Liquid crystal of unknown type	915.784	1405	–
330.91 K, Liquid crystal of unknown type	915.622	1404.2	–
331.16 K, Liquid crystal of unknown type	915.461	1403.5	–
331.4 K, Liquid crystal of unknown type	915.3	1402.7	–
331.66 K, Liquid crystal of unknown type	915.14	1401.9	–
331.91 K, Liquid crystal of unknown type	914.98	1401.2	–
332.16 K, Liquid crystal of unknown type	914.818	1400.4	–
332.41 K, Liquid crystal of unknown type	914.658	1399.6	–
332.66 K, Liquid crystal of unknown type	914.496	1398.8	–
332.91 K, Liquid crystal of unknown type	914.336	1398.1	–
333.16 K, Liquid crystal of unknown type	914.175	1397.3	–
333.41 K, Liquid crystal of unknown type	914.015	1396.5	–
333.66 K, Liquid crystal of unknown type	913.853	1395.7	–
333.91 K, Liquid crystal of unknown type	913.692	1395	–
334.16 K, Liquid crystal of unknown type	913.531	1394.2	–
334.41 K, Liquid crystal of unknown type	913.369	1393.4	–
334.66 K, Liquid crystal of unknown type	913.208	1392.6	–
334.91 K, Liquid crystal of unknown type	913.046	1391.9	–
335.16 K, Liquid crystal of unknown type	912.885	1391.1	–
335.4 K, Liquid crystal of unknown type	912.725	1390.3	–
335.66 K, Liquid crystal of unknown type	912.564	1389.6	–
335.91 K, Liquid crystal of unknown type	912.403	1388.8	–
336.16 K, Liquid crystal of unknown type	912.241	1388	–
336.41 K, Liquid crystal of unknown type	912.079	1387.2	–
336.66 K, Liquid crystal of unknown type	911.917	1386.5	–
336.91 K, Liquid crystal of unknown type	911.757	1385.8	–
337.16 K, Liquid crystal of unknown type	911.595	1385	–
337.41 K, Liquid crystal of unknown type	911.432	1384.2	–
337.66 K, Liquid crystal of unknown type	911.272	1383.5	–
337.91 K, Liquid crystal of unknown type	911.11	1382.7	–
338.15 K, Liquid crystal of unknown type	–	–	225.9
338.16 K, Liquid crystal of unknown type	910.95	1381.9	–
338.41 K, Liquid crystal of unknown type	910.787	1381.2	–
338.66 K, Liquid crystal of unknown type	910.626	1380.4	–
338.9 K, Liquid crystal of unknown type	910.464	1379.7	–
339.16 K, Liquid crystal of unknown type	910.301	1378.9	–
339.41 K, Liquid crystal of unknown type	910.142	1378.1	–
339.66 K, Liquid crystal of unknown type	909.978	1377.4	–
339.9 K, Liquid crystal of unknown type	909.815	1376.6	–
340.16 K, Liquid crystal of unknown type	909.655	1375.9	–
340.4 K, Liquid crystal of unknown type	909.492	1375.1	–
340.66 K, Liquid crystal of unknown type	909.33	1374.4	–
340.91 K, Liquid crystal of unknown type	909.169	1373.6	–
341.16 K, Liquid crystal of unknown type	909.006	1372.9	–
341.41 K, Liquid crystal of unknown type	908.843	1372.1	–
341.66 K, Liquid crystal of unknown type	908.682	1371.3	–
341.9 K, Liquid crystal of unknown type	908.521	1370.6	–
342.16 K, Liquid crystal of unknown type	908.356	1369.8	–
342.41 K, Liquid crystal of unknown type	908.195	1369.1	–
342.65 K, Liquid crystal of unknown type	908.033	1368.3	–
342.9 K, Liquid crystal of unknown type	907.872	1367.6	–
343.15 K, Liquid crystal of unknown type	907.717	1366.9	–
348.15 K, Liquid crystal of unknown type	–	–	129.1
353.15 K, Liquid crystal of unknown type	–	–	97.5
358.15 K, Liquid crystal of unknown type	–	–	79.2
368.15 K, Liquid	–	–	50.5
